The numbers were not newly measured in patent publication US20230123388A1 (GLANIS PHARMACEUTICALS, INC., priority 2020, published 2023), which cites them from elsewhere.

Counter-ions that a name gives are not always drawn. Like-named read-outs stand apart in the source and are kept apart here.

In data set [1] the test system is albumin and apha1-acid glycoprotein.
Assay in data set [2]: not given
This is another data set of the same source.

With `CCN(CCO)CCCC(C)Nc1ccnc2cc(Cl)ccc12` (stereo not drawn) [Hydroxychloroquine sulfate], the solubility in alcohol entry (alcohol) is reported as “practically insoluble”. Besides, under “chloroform”, the solubility in chloroform result is given as “practically insoluble”. Further, for the setting “ether”, the solubility in ether result is “practically insoluble”. Where the note is “water”, the solubility in water entry was “freely soluble”.
As to `CCN(CCO)CCCC(C)Nc1ccnc2cc(Cl)ccc12` (stereo not drawn) [Hydroxychloroquine], the protein binding in data set [1] is reported as about 40%. Also, the “time of peak concentration” value in data set [2] (200 mg oral dose) is “around 3 hours”. Besides, in data set [2] (200 mg oral dose, blood), the “peak concentration in blood” value is recorded as “around 129.6 ng/ml”. For the same compound, the “plasma concentration (peak)” value in data set [2] (200 mg oral dose, plasma) is recorded as “around 50.3 ng/ml”. Further, in data set [2] (based on blood concentration), the terminal half-life was 30 to 60 days. Further, the terminal half-life in data set [2] (based on the plasma concentration profile) is given as about 32 days. For the same compound, in data set [2] (in vivo), the clearance is 15.5 L/h and the half-life was about 2.08 days. Moreover, the volume of distribution result in data set [2] (in vivo, listed as HCQ) was “very large and high”. Moreover, the oral bioavailability result in data set [2] (oral tablet) is listed as “about 75%”. The bioavailability in data set [2] (randomized cross over study, 155 mg dose oral and IV infusion) is 0.74.

For orientation: clearance means a measure of how efficiently the substance is removed, as volume per time. As a reminder, the half-life is how long it takes for the measured level to halve.
